# Test results as given in US7273863B1, “Benzophenones as inhibitors of reverse transcriptase” (SmithKline Beecham Corporation, priority 1999, dated 2007).
# Read-outs that look alike come from different tables or passages of the source.
# Tests used:
# HIV-1 (strain IIIB) = assay: MT4 cell assay, antiviral HIV activity (propidium iodide); type: cell-based; conditions: Human immunodeficiency virus 1, IIIB
# Method: Antiviral HIV activity and compound-induced cytotoxicity were measured in parallel by means of a propidium iodide based procedure in the human T-cell lymphotropic virus transformed cell line MT4. Aliquots of the test compounds were serially diluted in medium (RPMI 1640, 10% fetal calf serum (FCS), and gentamycin) in 96-well plates (Costar 3598) using a Cetus Pro/Pette. Exponentially growing MT4 cells were harvested and centrifuged at 1000 rpm for 10 min in a Jouan centrifuge (model CR 4 12). Cell pellets were resuspended in fresh medium (RPMI 1640, 20% FCS, 20% IL-2, and gentamycin) to a density of 5×10^5 cells/ml. Cell aliquots were infected by the addition of HIV-1 (strain IIIB) diluted to give a viral multiplicity of infection of 100×TCID50. A similar cell aliquot was diluted with medium to provide a mock-infected control. Cell infection was allowed to proceed for 1 hr at 37° C. in a tissue culture incubator with humidified 5% CO2 atmosphere. After the 1 hr incubation the virus/cell suspensions were diluted 6-fold with fresh medium, and 125 μl of the cell suspension was added to each well of the plate containing pre-diluted compound. Plates were then placed in a tissue culture incubator with humidified 5% CO2 for 5 days. At the end of the incubation period, 27 μl of 5% Nonidet-40 was added to each well of the incubation plate. After thorough mixing with a Costar multitip pipetter, 60 μl of the mixture was transferred to filter-bottomed 96-well plates. The plates were analyzed in an automated assay instrument (Screen Machine, Idexx Laboratories). The control and standard used was 3′-azido-3′-deoxythymidine tested over a concentration range of 0.01 to 1 μM in every assay. […] The assay-makes use of a propidium iodide dye to estimate the DNA content of each well.
# The antiviral effect of a test compound is reported as an IC50, i.e. the inhibitory concentration that would produce a 50% decrease in the HIV-induced cytopathic effect. This effect is measured by the amount of test compound required to restore 50% of the cell growth of HIV-infected MT4 cells, compared to uninfected MT4 cell controls. IC50 was calculated by RoboSage, Automated Curve Fitting Program, version 5.00, 10 Jul. 1995.
# For each assay plate, the results (relative fluorescence units, rfU) of wells containing uninfected cells or infected cells with no compound were averaged, respectively. For measurements of compound-induced cytotoxicty, results from wells containing various compound concentrations and uninfected cells were compared to the average of uninfected cells without compound treatment. Percent of cells remaining is determined by the following formula: Percent of cells remaining=(compound−treated uninfected cells, rfU/untreated uninfected cells)×100.
# A level of percent of cells remaining of 79% or less indicates a significant level of direct compound-induced cytotoxicity for the compound at that concentration. When this condition occurs the results from the compound-treated infected wells at this concentration are not included in the calculation of IC50.
# For measurements of compound antiviral activity, results from wells containing various compound concentrations and infected cells are compared to the average of uninfected and infected cells without compound treatment. Percent inhibition of virus is determined by the following formula: Percent inhibition of virus=(1−((ave. untreated uninfected cells−treated infected cells)/(ave. untreated uninfected cells−ave. untreated infected cells)))×100
# NEV-R = assay: as above; type: cell-based; conditions: Human immunodeficiency virus 1, MT4, read-out: IC50 (nM) Range
# WTRVA = assay: HeLa cell assay (HIV-LTR β-galactosidase reporter); type: cell-based, HIV-1; conditions: Human immunodeficiency virus 1, Virus Type WTRVA, read-out: IC50 (nM) Range
# Method: (§1) The HeLa cell assay was performed according to a modification of Kimpton J. and Emerman M., Detection of replication-competent and pseudotyped human immunodeficiency virus with a sensitive cell line on the basis of activation of an integrated β-galactosidase gene, J. Virol. 66:2232-2239 (1992), in which HIV-1 infection is detected by the activation of an HIV-LTR driven β-galactosidase reporter that is integrated into the genome of a CD4^+ HeLa cell line. Quantitation of β-galactosidase is achieved by measuring the activation of a chemiluminescent substrate (Tropix). The concentration of each compound required to inhibit 50% (IC50) of the HIV-1 induced β-galactosidase signal, relative to untreated controls, was determined for each isogenic, recombinant virus.
# (§2) HeLa-CD4-LTR-β-gal cells were obtained from the NIH AIDS Research and Reference Reagent Program. Cells were propagated in DMEM containing 10% fetal bovine serum, 0.2 mg/ml geneticin and 0.1 mg/ml hygromycin B. Cells were routinely split by trypsinization when confluency reached 80% (approximately every 2 to 3 days).
# (§3) DNA encoding the HIV-1 reverse transcriptase was subcloned from a M13 phage into a general shuttle vector, pBCSK+, as a ˜1.65 kbp EcoRI/HindIII ended DNA fragment. The HIV DNA insert of the resulting plasmid, pRT2, was completely sequenced on both strands prior to use in site directed mutagenesis experiments. Specific amino acid replacements were made using Stratagene Quick Change reagents and mutagenic oligonucleotides from Oligos. Following mutagenesis, the entire mutant RT coding sequence was verified by sequencing both DNA strands.
# (§4) Mutant HIV-1 strains were isolated by a modified Recombinant Virus Assay (Kellam P. and Larder B., Recombinant virus assay: a rapid, phenotypic assay for assessment of drug susceptibility of human immunodeficiency virus type 1 isolates, Antimicrobial Agents and Chemotherapy, 38:23-30, 1994). 1×10^7 Jurkat T-cells (maintained in RPMI containing 10% fetal bovine serum, split 1:5 every 5 to 6 days) were co-transfected with EcoRI/HindIII digested mutant RT plasmid and Bst EII-digested HIV-1HXB2ΔRT DNA in the presence of DMRIE-C transfection reagent (Gibco) according to supplier's recommended protocol. Each mutant RT coding sequence was crossed into the RT-deleted HIV-1 viral DNA backbone by in vivo homologous recombination. Transfected cell cultures were expanded and monitored until syncitia formation and CPE were extensive. Virus was harvested by clear spin of the culture supernatants and frozen at −80 C as primary stock. Recombinant progeny virus was sequenced in the RT region to confirm the mutant genotype. Virus stocks were further expanded by infection of Jurkat cells, harvested and stored as frozen aliquots. Stocks were titered in HeLa MAGI cells for assay.
# (§5) The HIV-1HXB2 mutants were titered in the HeLa MAGI assay system to determine the relative light units (RLU) per ml, a measure of infectivity relevant for this assay system. Virus stocks were diluted in a 2-fold series into DMEM containing 10% fetal bovine serum plus 20 ug/ml DEAE-dextran and assayed as described in the Experimental Protocol section, below.
# (§6) 96-well microtiter plate(s) (Costar #3598) were seeded with 3×10^3 HeLa-CD4-LTR-β-gal in 100 μl DMEM containing 10% fetal bovine serum. Plates were placed in a 37° C., 5% CO2 humidified incubator overnight. The following day, mutant virus stocks were thawed in a room temperature water bath and diluted into DMEM containing 10% fetal bovine serum and 20 μg/ml DEAE-dextran to achieve an input of 1500 to 2000 RLU/ml. All media was removed with an 8 channel manifold aspirator and 35 μl (50 to 70 total RLUs) of diluted virus was added to each well for virus adsorption. Plates were placed in a 37° C., 5% CO2 humidified incubator for 1.5 to 2 hours.
# (§7) Compound titration plates were prepared at 1.35× final concentration during the virus adsorption period. […]
# [1] = test system: isogenic HIV-1 RT mutant virus K103N; assay: HeLa cell assay (HIV-LTR β-galactosidase reporter); type: cell-based; conditions: Human immunodeficiency virus 1, HeLa, read-out: IC50 (nM) Range
# Method: as §1, §2, §3, §4, §5, §6, §7
# [2] = test system: isogenic HIV-1 RT mutant virus V106A; assay: HeLa cell assay (HIV-LTR β-galactosidase reporter); type: cell-based; conditions: Human immunodeficiency virus 1, HeLa, read-out: IC50 (nM) Range
# Method: as §1, §2, §3, §4, §5, §6, §7
# [3] = test system: isogenic HIV-1 RT mutant virus Y181C; assay: HeLa cell assay (HIV-LTR β-galactosidase reporter); type: cell-based; conditions: Human immunodeficiency virus 1, HeLa, read-out: IC50 (nM) Range
# Method: as §1, §2, §3, §4, §5, §6, §7
# [4] = test system: isogenic HIV-1 RT mutant virus K103N/Y181C; assay: HeLa cell assay (HIV-LTR β-galactosidase reporter); type: cell-based; conditions: Human immunodeficiency virus 1, HeLa, read-out: IC50 (nM) Range
# Method: as §1, §2, §3, §4, §5, §6, §7
# [5] = test system: isogenic HIV-1 RT mutant virus V106A/Y181C; assay: HeLa cell assay (HIV-LTR β-galactosidase reporter); type: cell-based; conditions: Human immunodeficiency virus 1, HeLa, read-out: IC50 (nM) Range
# Method: as §1, §2, §3, §4, §5, §6, §7
# [6] = test system: isogenic HIV-1 RT mutant virus V106I/Y181C; assay: HeLa cell assay (HIV-LTR β-galactosidase reporter); type: cell-based; conditions: Human immunodeficiency virus 1, HeLa, read-out: IC50 (nM) Range
# Method: as §1, §2, §3, §4, §5, §6, §7
# [7] = test system: isogenic HIV-1 RT mutant virus V106I; assay: HeLa cell assay (HIV-LTR β-galactosidase reporter); type: cell-based; conditions: Human immunodeficiency virus 1, HeLa, read-out: IC50 (nM) Range
# Method: as §1, §2, §3, §4, §5, §6, §7
# HIV-2 = assay: MT4 cell assay, antiviral HIV activity (propidium iodide); type: cell-based; conditions: Human immunodeficiency virus 2, Virus Type HIV-2, read-out: IC50 (nM) Range
# [8] = Virus Type HIV-1, Assay MT4, read-out: IC50 (nM) Range
Compound,IC50 (HIV-1 (strain IIIB); [8]) [nM],IC50 (NEV-R) [nM],IC50 (WTRVA) [nM],IC50 [1] [nM],IC50 [3] [nM],IC50 [4] [nM],also measured
"Cc1cn([C@H]2C[C@H](N=[N+]=[N-])[C@@H](CO)O2)c(=O)[nH]c1=O [3′-azido-3′-deoxythymidine, reference compound]",–,–,–,–,–,–,"IC50 (HIV-1 (strain IIIB); control and standard tested in every MT4 assay, 0.01 to 1 μM, read-out: expected range of IC50 values): 40 to 120 nM"
Cc1cc(N2CC[S+]([O-])CC2)ccc1NC(=O)COc1ccc(Cl)cc1C(=O)c1nccs1 [Compound 8],11 to 100,101 to 1000,–,–,–,–,–
O=C(COc1ccc(Cl)cc1C(=O)c1cc(F)cc(F)c1)Nc1ccc(Cl)nc1 [Compound 275],–,–,–,–,–,–,melting point: 198 to 200 °C
O=C(COc1ccc(Cl)cc1C(=O)c1nccs1)Nc1ccc2[nH]ncc2c1 [Compound 5],11 to 100,101 to 1000,–,–,–,–,–
Cc1cc(S(N)(=O)=O)ccc1NC(=O)COc1ccc(Cl)cc1C(=O)c1cc(C#N)cc(C#N)c1 [Compound 601],< 10,< 10,< 10,< 10,< 10,–,IC50 [2]: < 10 nM
O=C(c1cc(F)cc(F)c1)c1cc(Cl)ccc1OCC(=O)N1CCc2ccccc21 [Compound 276],–,–,–,–,–,–,melting point: 158 to 160 °C
O=C(COc1ccc(Cl)cc1C(=O)c1ccco1)Nc1ccc2cn[nH]c2c1 [Compound 435],< 10,11 to 100,< 10,< 10,11 to 100,101 to 1000,–
Cc1cc(Cl)cc(C(=O)c2cc(Cl)ccc2OCC(=O)Nc2ccc(S(N)(=O)=O)cc2C)c1 [Compound 483],11 to 100,< 10,11 to 100,101 to 1000,101 to 1000,–,IC50 [5]: 101 to 1000 nM; IC50 [6]: 11 to 100 nM; IC50 [7]: < 10 nM
Cc1cc(S(N)(=O)=O)ccc1NC(=O)COc1ccc(Cl)cc1C(=O)c1cc(Cl)cc(Cl)c1 [Compound 79],< 10,< 10,–,< 10,–,< 10,IC50 (HIV-2): 1000 to 3000 nM
O=C(COc1ccc(Cl)cc1C(=O)c1cc2ccccc2o1)Nc1ccccc1 [Compound 9],11 to 100,101 to 1000,–,–,–,–,–
O=C(COc1ccc(Cl)cc1C(=O)c1ccccc1)Nc1ccc2cn[nH]c2c1 [Compound 387],< 10,11 to 100,< 10,< 10,11 to 100,11 to 100,–
Cc1cc(N2CC[S+]([O-])CC2)ccc1NC(=O)COc1ccc(Cl)cc1C(=O)c1cccs1 [Compound 122],< 10,11 to 100,11 to 100,11 to 100,101 to 1000,1000 to 3000,–
COc1ccc(NC(=O)COc2ccc(Cl)cc2C(=O)c2cc(F)cc(F)c2)cn1 [Compound 274],–,–,–,–,–,–,melting point: 185 to 187 °C
O=C(COc1ccc(Cl)cc1C(=O)c1ccccc1)Nc1ccc(-n2cncn2)cc1 [Compound 103],11 to 100,101 to 1000,–,11 to 100,–,–,–
Cc1cc(OCCCN2CCOCC2)ccc1NC(=O)COc1ccc(Cl)cc1C(=O)c1cccs1 [Compound 120],11 to 100,11 to 100,11 to 100,11 to 100,11 to 100,101 to 1000,–
O=C(COc1ccc(Cl)cc1C(=O)c1nccs1)Nc1ccccc1 [Compound 1],101 to 1000,1000 to 3000,–,–,–,–,–
CS(=O)(=O)Nc1ccc(NC(=O)COc2ccc(Cl)cc2C(=O)c2ccccc2)cc1 [Compound 338],< 10,11 to 100,< 10,11 to 100,11 to 100,101 to 1000,–
O=C(COc1ccc(Cl)cc1C(=O)c1cc(F)cc(F)c1)Nc1ccc2c(c1)CS(=O)(=O)C2 [Compound 277],–,–,–,–,–,–,melting point: 197 to 199 °C
